Legend:
[1] = target: T1, Amine oxidase [flavin-containing] A (Homo sapiens, UniProt P21397); type: functional
T1 sequence (P21397 whole entry): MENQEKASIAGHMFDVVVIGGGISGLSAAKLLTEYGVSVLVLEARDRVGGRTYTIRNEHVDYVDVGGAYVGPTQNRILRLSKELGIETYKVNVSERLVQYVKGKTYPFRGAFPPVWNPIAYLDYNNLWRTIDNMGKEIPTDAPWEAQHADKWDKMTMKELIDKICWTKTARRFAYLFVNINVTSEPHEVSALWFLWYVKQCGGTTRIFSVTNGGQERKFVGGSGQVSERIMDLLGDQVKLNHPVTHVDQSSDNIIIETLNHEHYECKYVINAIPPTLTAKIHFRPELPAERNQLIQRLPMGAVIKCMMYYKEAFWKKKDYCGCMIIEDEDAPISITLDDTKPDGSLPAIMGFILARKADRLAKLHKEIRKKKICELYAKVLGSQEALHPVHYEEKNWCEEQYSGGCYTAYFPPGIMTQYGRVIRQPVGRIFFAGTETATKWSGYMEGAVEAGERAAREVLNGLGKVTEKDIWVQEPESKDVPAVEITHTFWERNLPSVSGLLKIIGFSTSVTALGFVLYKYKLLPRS

Histamine H3 receptor = Histamine H3 receptor (Homo sapiens, UniProt Q9Y5N1)
Histamine H3 receptor, sequence (Q9Y5N1 whole entry): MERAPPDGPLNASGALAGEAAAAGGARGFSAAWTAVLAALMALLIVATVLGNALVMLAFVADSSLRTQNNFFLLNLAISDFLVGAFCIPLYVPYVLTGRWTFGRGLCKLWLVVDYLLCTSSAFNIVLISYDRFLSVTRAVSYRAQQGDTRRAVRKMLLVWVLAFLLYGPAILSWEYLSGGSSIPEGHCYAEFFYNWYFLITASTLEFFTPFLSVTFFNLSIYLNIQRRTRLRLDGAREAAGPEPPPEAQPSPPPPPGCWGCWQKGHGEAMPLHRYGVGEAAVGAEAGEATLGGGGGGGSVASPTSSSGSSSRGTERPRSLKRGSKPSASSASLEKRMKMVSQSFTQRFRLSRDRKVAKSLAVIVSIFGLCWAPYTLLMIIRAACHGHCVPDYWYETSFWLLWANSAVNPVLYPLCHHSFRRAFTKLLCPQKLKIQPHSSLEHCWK

Progesterone receptor [2] = target: T2, Progesterone receptor (Homo sapiens, UniProt P06401); type: functional
T2 sequence (P06401 whole entry): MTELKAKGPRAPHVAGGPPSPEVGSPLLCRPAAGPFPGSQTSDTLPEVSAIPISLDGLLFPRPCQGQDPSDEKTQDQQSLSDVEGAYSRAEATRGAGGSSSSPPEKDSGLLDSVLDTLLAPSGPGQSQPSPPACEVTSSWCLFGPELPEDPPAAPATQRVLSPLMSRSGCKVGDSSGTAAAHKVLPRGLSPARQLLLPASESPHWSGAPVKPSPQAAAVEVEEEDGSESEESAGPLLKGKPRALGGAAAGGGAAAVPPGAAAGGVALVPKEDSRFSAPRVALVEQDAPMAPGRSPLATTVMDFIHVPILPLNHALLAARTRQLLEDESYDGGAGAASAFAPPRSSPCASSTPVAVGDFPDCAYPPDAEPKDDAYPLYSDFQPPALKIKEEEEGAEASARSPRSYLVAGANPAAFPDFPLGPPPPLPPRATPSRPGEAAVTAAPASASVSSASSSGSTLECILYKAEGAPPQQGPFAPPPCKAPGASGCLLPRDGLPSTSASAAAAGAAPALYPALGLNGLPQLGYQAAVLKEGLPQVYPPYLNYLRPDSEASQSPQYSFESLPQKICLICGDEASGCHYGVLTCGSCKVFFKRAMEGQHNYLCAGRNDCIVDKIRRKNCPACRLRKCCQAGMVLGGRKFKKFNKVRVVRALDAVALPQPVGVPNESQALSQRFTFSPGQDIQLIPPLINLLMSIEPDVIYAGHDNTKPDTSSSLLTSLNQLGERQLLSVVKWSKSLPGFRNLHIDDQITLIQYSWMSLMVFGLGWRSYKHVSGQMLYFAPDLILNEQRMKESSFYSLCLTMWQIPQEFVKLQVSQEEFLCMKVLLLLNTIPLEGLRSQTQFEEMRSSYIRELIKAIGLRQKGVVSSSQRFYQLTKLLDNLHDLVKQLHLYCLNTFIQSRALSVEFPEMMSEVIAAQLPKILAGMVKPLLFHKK

Progesterone receptor [3] = target: T2, Progesterone receptor; type: functional; remark: listed apart in the source
[4] = target: Kappa-type opioid receptor (Homo sapiens, UniProt P41145)
Kappa-type opioid receptor, sequence (P41145 whole entry): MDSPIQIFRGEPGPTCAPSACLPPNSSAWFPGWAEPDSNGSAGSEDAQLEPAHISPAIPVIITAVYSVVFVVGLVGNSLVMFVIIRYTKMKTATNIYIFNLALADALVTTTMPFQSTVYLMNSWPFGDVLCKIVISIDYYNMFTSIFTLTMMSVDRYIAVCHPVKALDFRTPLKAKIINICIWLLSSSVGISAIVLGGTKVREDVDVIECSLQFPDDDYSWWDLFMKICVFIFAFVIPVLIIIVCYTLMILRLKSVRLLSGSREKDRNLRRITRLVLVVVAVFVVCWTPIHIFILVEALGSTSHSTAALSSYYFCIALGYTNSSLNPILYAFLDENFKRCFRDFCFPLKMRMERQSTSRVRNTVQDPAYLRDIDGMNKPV

Cannabinoid receptor 1 = Cannabinoid receptor 1 (Homo sapiens, UniProt P21554); type: functional, cell-based
Cannabinoid receptor 1, sequence (P21554 whole entry): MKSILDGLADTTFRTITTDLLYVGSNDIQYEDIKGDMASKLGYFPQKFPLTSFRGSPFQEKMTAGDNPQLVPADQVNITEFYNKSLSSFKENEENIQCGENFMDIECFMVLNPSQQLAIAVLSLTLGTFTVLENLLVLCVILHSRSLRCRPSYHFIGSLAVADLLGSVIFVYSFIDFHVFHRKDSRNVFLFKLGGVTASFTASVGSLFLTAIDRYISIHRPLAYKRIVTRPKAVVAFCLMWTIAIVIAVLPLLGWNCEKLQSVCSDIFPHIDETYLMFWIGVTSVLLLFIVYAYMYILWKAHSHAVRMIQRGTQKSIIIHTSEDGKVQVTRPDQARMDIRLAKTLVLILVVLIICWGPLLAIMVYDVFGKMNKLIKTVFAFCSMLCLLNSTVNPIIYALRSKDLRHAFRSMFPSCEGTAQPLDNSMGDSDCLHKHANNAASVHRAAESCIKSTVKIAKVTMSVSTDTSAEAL

[5] = target: T3, 5-hydroxytryptamine receptor 1A (Homo sapiens, UniProt P08908); type: functional, cell-based
T3 sequence (P08908 whole entry): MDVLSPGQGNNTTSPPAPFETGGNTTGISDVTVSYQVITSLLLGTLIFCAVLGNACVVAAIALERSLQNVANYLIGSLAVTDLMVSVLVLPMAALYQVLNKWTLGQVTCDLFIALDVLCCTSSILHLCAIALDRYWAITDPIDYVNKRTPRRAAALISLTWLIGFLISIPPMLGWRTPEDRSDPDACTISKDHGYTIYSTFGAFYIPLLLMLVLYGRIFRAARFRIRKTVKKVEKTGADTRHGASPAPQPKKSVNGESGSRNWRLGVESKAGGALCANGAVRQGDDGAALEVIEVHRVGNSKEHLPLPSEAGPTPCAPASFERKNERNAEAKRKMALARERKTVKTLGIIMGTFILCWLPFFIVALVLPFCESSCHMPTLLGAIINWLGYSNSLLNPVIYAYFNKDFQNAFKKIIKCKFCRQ
Note: assay procedure not described here.

| Compound | AC50 [1] [µM] | AC50 (Histamine H3 receptor) [µM] | AC50 (Progesterone receptor [2]) [µM] | AC50 (Progesterone receptor [3]) [µM] | AC50 [4] [µM] | AC50 (Cannabinoid receptor 1) [µM] | AC50 [5] [µM] |
| --- | --- | --- | --- | --- | --- | --- | --- |
| O=P1(N(CCCl)CCCl)NCCCO1 (configuration not stated) [CYCLOPHOSPHAMIDE ANHYDROUS] | > 30 | > 30 | – | – | – | – | – |
| COC(=O)CCc1ccc(OCC(O)CNC(C)C)cc1 (configuration not stated) [ESMOLOL] | – | – | > 30 | > 30 | > 30 | – | – |
| C[C@]12CCC(=O)C=C1CC[C@H]1[C@@H]3CC[C@](O)(C(=O)CO)[C@@]3(C)C[C@H](O)[C@@]12F [FLUDROCORTISONE] | – | – | – | – | > 10 | > 30 | > 10 |
| O=c1[nH]cc(F)c(=O)[nH]1 [FLUOROURACIL] | > 30 | > 30 | – | > 30 | – | – | – |
| CCOC(=O)Nc1ccc(NCc2ccc(F)cc2)nc1N [FLUPIRTINE] | – | – | – | > 30 | 18 | > 30 | 22 |
| CCN(CCO)CCCC(C)Nc1ccnc2cc(Cl)ccc12 (configuration not stated) [HYDROXYCHLOROQUINE] | – | – | > 10 | > 10 | > 10 | – | > 10 |
| OCCOCCN1CCN(C(c2ccccc2)c2ccc(Cl)cc2)CC1 (configuration not stated) [HYDROXYZINE] | – | – | – | – | 8.65 | > 30 | > 10 |
| C[C@@H](O)[C@H]1C(=O)N2C(C(=O)O)=C(SCCN=CN)C[C@H]12 [IMIPENEM ANHYDROUS] | – | – | > 300 | > 300 | – | > 300 | > 300 |
| CNC1(c2ccccc2Cl)CCCCC1=O (configuration not stated) [KETAMINE] | > 30 | > 30 | – | – | – | – | – |
| O=C(c1ccccc1)c1ccc2n1CCC2C(=O)O (configuration not stated) [KETOROLAC] | – | – | > 10 | > 10 | > 30 | – | > 10 |
| Nc1nnc(-c2cccc(Cl)c2Cl)c(N)n1 [LAMOTRIGINE] | – | – | – | – | > 10 | – | > 10 |
| O=NN(CCCl)C(=O)NC1CCCCC1 [LOMUSTINE] | > 30 | > 30 | – | – | – | – | – |
| O=C1[C@@H]2[C@H]3CC[C@H](C3)[C@@H]2C(=O)N1C[C@@H]1CCCC[C@H]1CN1CCN(c2nsc3ccccc23)CC1 [LURASIDONE] | > 30 | > 30 | > 30 | > 30 | – | > 30 | – |
| CNC1(C)C2CCC(C2)C1(C)C (configuration not stated) [MECAMYLAMINE] | – | – | > 10 | > 10 | > 10 | – | > 10 |
| CS(=O)(=O)Nc1ccc([N+](=O)[O-])cc1Oc1ccccc1 [NIMESULIDE] | > 30 | > 30 | > 30 | > 30 | > 30 | > 30 | – |
| CO[C@@H]1[C@@H](OC(N)=O)[C@@H](O)[C@H](Oc2ccc3c(O)c(NC(=O)c4ccc(O)c(CC=C(C)C)c4)c(=O)oc3c2C)OC1(C)C [NOVOBIOCIN] | – | – | > 30 | > 30 | – | > 30 | > 30 |
| C#CCN(C)Cc1ccccc1 [PARGYLINE] | – | > 30 | – | – | > 30 | > 30 | – |
| CCC1(c2ccccc2)C(=O)NCNC1=O [PRIMIDONE] | – | – | > 10 | > 10 | > 10 | – | > 10 |
| CCOc1ccccc1OCCN[C@H](C)Cc1ccc(OC)c(S(N)(=O)=O)c1 [TAMSULOSIN] | – | – | – | – | > 30 | – | 0.02 |
| C[C@H](Cn1cnc2c(N)ncnc21)OCP(=O)(O)O [TENOFOVIR ANHYDROUS] | – | – | > 30 | > 30 | > 30 | – | > 30 |
| COc1cc2c(cc1OC)C1CC(=O)C(CC(C)C)CN1CC2 (configuration not stated) [TETRABENAZINE] | – | – | > 30 | > 30 | – | > 30 | > 30 |
